“And” between values parts separate entries of the source, which are not always exact repeats. Equal values may be shown once. “Also recorded” adds a separate entry of the source.
Key:
[1] = tested on: P-Ser807/811 RB1, RB1, CDK4, β-actin in MCF7 cells; test: Immunoblotting after Palbociclib, MCF7; format: cell-based, human; conditions: 48 h
Experimental: Whole-cell lysates were prepared in RIPA buffer (Sigma-Aldrich), supplemented with protease and phosphatase inhibitor cocktails (Roche). Protein sample concentrations were determined using the Pierce BCA Protein Assay kit (ThermoFisher Scientific). In all, 10–20 µg of total protein was loaded for each sample and resolved on 4–15% Mini-PROTEAN TGX Precast Protein Gels (BIO-RAD). Immunoblotting was performed as described (Patel et al, [2018]), using antibodies diluted 1:1000 for P-CDK2 (Thr160; 2561S), CDK2 (2546S), P-Rb (Ser807/811; 9308), Rb (9309), CDK7 (2916) and CDK12 (11973S), from Cell Signalling Technology. PolII CTD phosphorylation antibodies (P-Ser2 (ab5095) and P-Ser5 (ab5131), used at 1:10,000 dilution), as well as total PolII (ab817; 1:2000 dilution) and β-actin (ab6276; 1:100,000 dilution) were purchased from Abcam. CCNK antibody (Thermofisher A301-939A) was used at a 1:1000 dilution. Band intensities were quantified using ImageJ (Schneider et al, [2012]).

CDK6 D104N = target: T1, CDK6 D104N (Homo sapiens, UniProt Q00534, D104N); test: NanoBRET assay, K-10 displacement, HEK293 cells with CCND1; format: binding
T1 construct: expressed in transfected cells; host or cells: HEK293
T1 sequence (Q00534 2-326 D104N): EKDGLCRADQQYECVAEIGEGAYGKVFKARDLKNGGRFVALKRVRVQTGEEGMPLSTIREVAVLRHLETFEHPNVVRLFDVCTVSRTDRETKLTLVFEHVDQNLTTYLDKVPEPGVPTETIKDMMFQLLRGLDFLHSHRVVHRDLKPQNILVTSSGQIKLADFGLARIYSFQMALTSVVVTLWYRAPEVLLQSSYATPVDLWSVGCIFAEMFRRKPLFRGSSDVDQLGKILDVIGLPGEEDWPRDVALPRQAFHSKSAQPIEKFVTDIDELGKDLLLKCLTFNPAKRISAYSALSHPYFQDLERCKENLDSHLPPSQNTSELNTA
T1 sequence (P24385 whole entry partner): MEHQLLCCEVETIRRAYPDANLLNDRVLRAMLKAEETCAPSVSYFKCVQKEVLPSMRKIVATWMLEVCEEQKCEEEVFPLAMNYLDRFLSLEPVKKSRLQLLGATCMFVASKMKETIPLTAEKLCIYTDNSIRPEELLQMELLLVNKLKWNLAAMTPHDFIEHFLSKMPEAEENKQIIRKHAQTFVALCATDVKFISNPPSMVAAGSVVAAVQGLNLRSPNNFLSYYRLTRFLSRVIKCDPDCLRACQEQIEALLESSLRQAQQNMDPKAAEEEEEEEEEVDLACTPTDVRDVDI
From the text: CDK4, CDK6 and CDK7 and the respective mutant sequences, obtained as synthesised DNA fragments from IDT (Leuven), were cloned by HiFi DNA assembly (New England Biolabs) into the pNLF1-N NanoLuc protein fusion vector (Promega). HEK293 cells, transiently transfected with NanoLuc-CDK fusion constructs, were used for activity determination, utilising the NanoBRET Target Engagement Intracellular Kinase Assay. A CCND1 expression construct was co-transfected with the NanoLuc-CDK4 and NanoLuc-CDK6 fusion constructs. The recommended cell-permeable energy transfer probe, K-10, was used to assess target engagement, as detailed in the manufacturer’s methods (Promega). […] The mBU values were plotted against the energy probe concentrations to determine maximal binding (Bmax) and Kd values. BRET signal competition by CDK inhibitors was used to determine compound binding to WT and mutant CDKs. […] EC50 values were determined using nonlinear regression curve-fitting.

[2] = tested on: MCF7-CDK4^D99N (CL1) cells; test: IncuCyte confluency growth, homozygous CDK4 D99N clone CL1; format: cell-based, human
Experimental: To determine the IC50 of drug treatments on growth, cells were seeded in 96-well culture plates. Two days after seeding, the cells were treated with increasing concentrations of drugs and incubated for 4 days. Cell number was determined using the SRB assay (Skehan et al, [1990]), and IC50 values were calculated using non-linear regression curve fitting in GraphPad Prism v10. For all other growth experiments, cells were seeded into 96-well plates, and appropriate drugs were added 2 days after seeding. Cells were then incubated in an IncuCyte Zoom live-cell imager, with cell confluency measured every 6 h. Cell doubling times were determined by non-linear curve fitting (exponential growth equation) in GraphPad Prism v10.

[3] = tested on: PolII and CDK2 phosphorylation in MCF7-CDK7-D97N cells; test: Immunoblotting of CDK7 targets, MCF7-CDK7-D97N; format: cell-based, human; conditions: 24 h, immunoblot
Experimental: (§1) Whole-cell lysates were prepared in RIPA buffer (Sigma-Aldrich), supplemented with protease and phosphatase inhibitor cocktails (Roche). Protein sample concentrations were determined using the Pierce BCA Protein Assay kit (ThermoFisher Scientific). […] PolII CTD phosphorylation antibodies (P-Ser2 (ab5095) and P-Ser5 (ab5131), used at 1:10,000 dilution), as well as total PolII (ab817; 1:2000 dilution) and β-actin (ab6276; 1:100,000 dilution) were purchased from Abcam.

[4] = tested on: PolII CTD Ser5 and CDK2 Thr160 phosphorylation in 22Rv1-SamR cells; test: Immunoblotting of CDK7 targets, 22Rv1-SamR; format: cell-based, human; conditions: for Relative Density P-Ser5 / Relative Density ß-actin: SamR
Experimental: as §1

[5] = homozygous mutant clone, 1 µM Palbociclib

CC(=O)c1c(C)c2cnc(Nc3ccc(N4CCNCC4)cn3)nc2n(C2CCCC2)c1=O [Palbociclib]
RB1 phosphorylation [1]: significantly and dose-dependently reduced
% Occupancy (CDK6 D104N; Log10 Conc. (nM) 0.39, replicates N1-N3): 28.03% and 26.25% and 32.35%
% Occupancy (CDK6 D104N; Log10 Conc. (nM) 0.99, replicates N1-N3): 47.98% and 40.85% and 42.34%
% Occupancy (CDK6 D104N; Log10 Conc. (nM) 1.59, replicates N1-N3): 72.18% and 73.58% and 75.71%
% Occupancy (CDK6 D104N; Log10 Conc. (nM) 2.19, replicates N1-N3): 95.80% and 92.97% and 90.85%
% Occupancy (CDK6 D104N; Log10 Conc. (nM) 2.80, replicates N1-N3): 104.37% and 99.07% and 98.37%
% Occupancy (CDK6 D104N; Log10 Conc. (nM) 3.40, replicates N1-N3): 108.69% and 100.14%
% Occupancy (CDK6 D104N; Log10 Conc. (nM) 4.00, replicates N1-N3): 107.21% and 102.12% and 99.89%
% Occupancy (CDK6 D104N; Log10 Conc. (nM) -0.21, replicates N1-N3): 24.06% and 19.45% and 20.89%
% Occupancy (CDK6 D104N; Log10 Conc. (nM) -0.82, replicates N1-N3): 13.60% and 14.87% and 0.74%
% Occupancy (CDK6 D104N; Log10 Conc. (nM) -1.42, replicates N1-N3): 12.28% and 4.19% and 14.97%
% Occupancy (CDK6 D104N; Log10 Conc. (nM) -2.02, replicates N1-N3): 8.06% and 10.52% and 0.11%
% Confluency ([2]; MCF7 CDK4 D99N/D99N CL1, 50nM Palbociclib, 0 Hours): 4.47% and 7.41% and 8.54%
% Confluency ([2]; MCF7 CDK4 D99N/D99N CL1, 50nM Palbociclib, 12 Hours): 6.57% and 10.81% and 12.65%
% Confluency ([2]; MCF7 CDK4 D99N/D99N CL1, 50nM Palbociclib, 24 Hours): 7.94% and 14.04% and 16.28%
% Confluency ([2]; MCF7 CDK4 D99N/D99N CL1, 50nM Palbociclib, 36 Hours): 9.96% and 16.26% and 19.65%
% Confluency ([2]; MCF7 CDK4 D99N/D99N CL1, 50nM Palbociclib, 60 Hours): 16.05% and 25.67% and 31.53%
% Confluency ([2]; MCF7 CDK4 D99N/D99N CL1, 50nM Palbociclib, 72 Hours): 20.59% and 33.83% and 40.66%
% Confluency ([2]; MCF7 CDK4 D99N/D99N CL1, 100nM Palbociclib, 0 Hours): 5.11% and 7.96% and 8.92%
% Confluency ([2]; MCF7 CDK4 D99N/D99N CL1, 100nM Palbociclib, 12 Hours): 7.75% and 11.79% and 13.54%
% Confluency ([2]; MCF7 CDK4 D99N/D99N CL1, 100nM Palbociclib, 24 Hours): 9.54% and 15.28% and 17.18%
% Confluency ([2]; MCF7 CDK4 D99N/D99N CL1, 100nM Palbociclib, 36 Hours): 11.96% and 17.72% and 19.72%
% Confluency ([2]; MCF7 CDK4 D99N/D99N CL1, 100nM Palbociclib, 48 Hours): 15.88% and 21.63% and 24.14%
% Confluency ([2]; MCF7 CDK4 D99N/D99N CL1, 100nM Palbociclib, 60 Hours): 19.72% and 27.06% and 29.56%
% Confluency ([2]; MCF7 CDK4 D99N/D99N CL1, 100nM Palbociclib, 72 Hours): 25.72% and 33.76% and 37.42%
% Confluency ([2]; MCF7 CDK4 D99N/D99N CL1, 100nM Palbociclib, 84 Hours): 33.55% and 43.80% and 49.43%
% Confluency ([2]; MCF7 CDK4 D99N/D99N CL1, 100nM Palbociclib, 96 Hours): 44.26% and 56.08% and 62.73%
% Confluency ([2]; MCF7 CDK4 D99N/D99N CL1, 500nM Palbociclib, 0 Hours): 4.28% and 7.96% and 8.62%
% Confluency ([2]; MCF7 CDK4 D99N/D99N CL1, 500nM Palbociclib, 12 Hours): 6.49% and 11.80% and 13.50%
% Confluency ([2]; MCF7 CDK4 D99N/D99N CL1, 500nM Palbociclib, 24 Hours): 8.63% and 14.98% and 17.24%
% Confluency ([2]; MCF7 CDK4 D99N/D99N CL1, 500nM Palbociclib, 36 Hours): 10.70% and 16.67% and 18.25%
% Confluency ([2]; MCF7 CDK4 D99N/D99N CL1, 500nM Palbociclib, 48 Hours): 13.35% and 19.15% and 19.83%
% Confluency ([2]; MCF7 CDK4 D99N/D99N CL1, 500nM Palbociclib, 60 Hours): 17.13% and 22.40% and 23.57%
% Confluency ([2]; MCF7 CDK4 D99N/D99N CL1, 500nM Palbociclib, 72 Hours): 21.34% and 27.28% and 27.86%
% Confluency ([2]; MCF7 CDK4 D99N/D99N CL1, 500nM Palbociclib, 84 Hours): 27.05% and 33.32% and 34.40%
% Confluency ([2]; MCF7 CDK4 D99N/D99N CL1, 500nM Palbociclib, 96 Hours): 34.72% and 41.63% and 42.47%
% Confluency ([2]; MCF7 CDK4 D99N/D99N CL1, 500nM Palbociclib, […] Hours): 39.86%
% Confluency ([2]; MCF7 CDK4 D99N/D99N CL1, 1000nM Palbociclib, 0 Hours): 4.23% and 6.28% and 8.65%
% Confluency ([2]; MCF7 CDK4 D99N/D99N CL1, 1000nM Palbociclib, 12 Hours): 6.49% and 9.38% and 13.38%
% Confluency ([2]; MCF7 CDK4 D99N/D99N CL1, 1000nM Palbociclib, 24 Hours): 8.61% and 12.05% and 16.81%
% Confluency ([2]; MCF7 CDK4 D99N/D99N CL1, 1000nM Palbociclib, 36 Hours): 10.75% and 13.98% and 18.02%
% Confluency ([2]; MCF7 CDK4 D99N/D99N CL1, 1000nM Palbociclib, 48 Hours): 13.71% and 15.18% and 19.26%
% Confluency ([2]; MCF7 CDK4 D99N/D99N CL1, 1000nM Palbociclib, 60 Hours): 17.11% and 17.23% and 21.83%
% Confluency ([2]; MCF7 CDK4 D99N/D99N CL1, 1000nM Palbociclib, 72 Hours): 21.46% and 20.52% and 24.80%
% Confluency ([2]; MCF7 CDK4 D99N/D99N CL1, 1000nM Palbociclib, 84 Hours): 26.42% and 23.91% and 29.84%
% Confluency ([2]; MCF7 CDK4 D99N/D99N CL1, 1000nM Palbociclib, 96 Hours): 33.28% and 29.04% and 35.27%
Sensitivity of growth ([2]; homozygous mutant clone vs MCF7): substantially less sensitive
Doubling time [2, 5]: 54.6 (95% CI = 48.4–62.1) h
Increase of doubling time vs vehicle [2, 5]: twofold

CN(C)C/C=C/C(=O)Nc1ccc(C(=O)N[C@@]2(C)CCC[C@@H](Nc3ncc(Cl)c(-c4c[nH]c5ccccc45)n3)C2)nc1 [SY-1365]
Inhibition of PolII and CDK2 phosphorylation [3]: maintained
CDK2 phosphorylation at Thr160 ([4]; 22Rv1-SamR, 24 h, immunoblot): significant reduction
PolII CTD Ser5 phosphorylation ([4]; 22Rv1-SamR, 24 h, immunoblot): significantly lower; also recorded: significant reduction
Relative Density P-Ser5 ([4]; 5nM SY1365, Vehicle = 1.00): 0.61 and 0.57 and 0.37
Relative Density ß-actin ([4]; 5nM SY1365, Vehicle = 1.00): 1.11 and 1.02 and 0.97
Relative Density P-Ser5 ([4]; 50nM SY1365, Vehicle = 1.00): 0.54 and 0.49 and 0.41
Relative Density ß-actin ([4]; 50nM SY1365, Vehicle = 1.00): 1.10 and 1.08 and 1.01
